The source of these data is patent US9040533B2, “Oxime-substituted-quinoxaline-type piperidine compounds as ORL-1 modulators” (priority 2012, dated 2015).

Some targets named below: CYP3A4 (Homo sapiens, UniProt P08684); CYP2D6 (Homo sapiens, UniProt P10635); CYP2C19 (Homo sapiens, UniProt P33261); CYP2C9 (Homo sapiens, UniProt P11712).
Experiment in all cases: biochemical
The next experiment concerns the target T1, CYP1A2 (Homo sapiens, UniProt P05177).
T1 sequence (P05177 1-516): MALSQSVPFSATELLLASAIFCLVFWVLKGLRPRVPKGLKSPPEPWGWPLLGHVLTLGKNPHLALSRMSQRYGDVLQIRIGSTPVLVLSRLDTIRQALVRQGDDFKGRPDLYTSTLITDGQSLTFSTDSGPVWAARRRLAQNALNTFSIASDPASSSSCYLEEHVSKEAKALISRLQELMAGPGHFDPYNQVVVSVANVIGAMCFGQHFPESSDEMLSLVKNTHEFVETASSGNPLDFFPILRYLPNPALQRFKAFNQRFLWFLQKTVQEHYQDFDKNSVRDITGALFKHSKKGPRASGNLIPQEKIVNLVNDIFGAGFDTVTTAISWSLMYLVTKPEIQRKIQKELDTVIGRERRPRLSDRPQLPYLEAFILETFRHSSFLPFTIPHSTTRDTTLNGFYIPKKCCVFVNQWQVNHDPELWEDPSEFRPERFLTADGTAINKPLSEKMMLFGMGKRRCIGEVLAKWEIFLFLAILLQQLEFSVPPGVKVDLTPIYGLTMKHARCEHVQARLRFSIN

Sequence of CYP2D6 (P10635 whole entry): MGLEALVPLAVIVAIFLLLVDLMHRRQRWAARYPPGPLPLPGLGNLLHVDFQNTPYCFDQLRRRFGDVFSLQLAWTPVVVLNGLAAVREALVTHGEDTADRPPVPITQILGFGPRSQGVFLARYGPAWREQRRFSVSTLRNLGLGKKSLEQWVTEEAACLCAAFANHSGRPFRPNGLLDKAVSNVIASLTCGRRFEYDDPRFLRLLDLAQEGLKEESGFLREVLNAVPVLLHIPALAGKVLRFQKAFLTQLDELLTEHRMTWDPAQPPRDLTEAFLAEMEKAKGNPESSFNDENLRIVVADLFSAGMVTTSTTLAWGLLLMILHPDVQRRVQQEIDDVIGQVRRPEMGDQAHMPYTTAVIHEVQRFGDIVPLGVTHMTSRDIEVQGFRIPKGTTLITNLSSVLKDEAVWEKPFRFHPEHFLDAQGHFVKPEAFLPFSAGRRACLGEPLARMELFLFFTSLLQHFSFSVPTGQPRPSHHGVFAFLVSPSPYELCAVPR
Sequence of CYP2C9 (P11712 whole entry): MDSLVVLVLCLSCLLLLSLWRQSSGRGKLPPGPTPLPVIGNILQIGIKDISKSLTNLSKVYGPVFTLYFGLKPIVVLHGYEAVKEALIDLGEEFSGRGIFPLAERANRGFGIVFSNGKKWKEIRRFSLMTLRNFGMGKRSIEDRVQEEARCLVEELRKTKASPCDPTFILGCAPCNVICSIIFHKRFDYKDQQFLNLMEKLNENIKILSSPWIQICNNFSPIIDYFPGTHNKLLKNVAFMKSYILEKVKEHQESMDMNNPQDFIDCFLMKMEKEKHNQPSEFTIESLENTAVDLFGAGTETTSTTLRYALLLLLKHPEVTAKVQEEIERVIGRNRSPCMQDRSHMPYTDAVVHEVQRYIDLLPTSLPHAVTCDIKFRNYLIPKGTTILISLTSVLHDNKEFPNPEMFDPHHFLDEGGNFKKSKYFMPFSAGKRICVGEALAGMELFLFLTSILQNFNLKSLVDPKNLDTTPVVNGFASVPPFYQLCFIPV
Sequence of CYP2C19 (P33261 whole entry): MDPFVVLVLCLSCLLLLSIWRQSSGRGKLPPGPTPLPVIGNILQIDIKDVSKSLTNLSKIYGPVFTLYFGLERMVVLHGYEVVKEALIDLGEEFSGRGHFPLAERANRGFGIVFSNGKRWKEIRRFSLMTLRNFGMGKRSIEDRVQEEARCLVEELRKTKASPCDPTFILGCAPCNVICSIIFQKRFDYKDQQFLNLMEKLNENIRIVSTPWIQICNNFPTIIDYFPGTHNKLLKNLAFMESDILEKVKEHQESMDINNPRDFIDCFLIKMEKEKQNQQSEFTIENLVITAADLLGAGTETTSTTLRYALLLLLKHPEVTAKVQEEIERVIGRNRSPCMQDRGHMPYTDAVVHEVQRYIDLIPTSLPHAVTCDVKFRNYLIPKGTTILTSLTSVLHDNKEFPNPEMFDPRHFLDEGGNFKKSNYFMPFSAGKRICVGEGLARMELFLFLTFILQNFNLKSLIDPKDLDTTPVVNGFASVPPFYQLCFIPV
Sequence of CYP3A4 (P08684 whole entry): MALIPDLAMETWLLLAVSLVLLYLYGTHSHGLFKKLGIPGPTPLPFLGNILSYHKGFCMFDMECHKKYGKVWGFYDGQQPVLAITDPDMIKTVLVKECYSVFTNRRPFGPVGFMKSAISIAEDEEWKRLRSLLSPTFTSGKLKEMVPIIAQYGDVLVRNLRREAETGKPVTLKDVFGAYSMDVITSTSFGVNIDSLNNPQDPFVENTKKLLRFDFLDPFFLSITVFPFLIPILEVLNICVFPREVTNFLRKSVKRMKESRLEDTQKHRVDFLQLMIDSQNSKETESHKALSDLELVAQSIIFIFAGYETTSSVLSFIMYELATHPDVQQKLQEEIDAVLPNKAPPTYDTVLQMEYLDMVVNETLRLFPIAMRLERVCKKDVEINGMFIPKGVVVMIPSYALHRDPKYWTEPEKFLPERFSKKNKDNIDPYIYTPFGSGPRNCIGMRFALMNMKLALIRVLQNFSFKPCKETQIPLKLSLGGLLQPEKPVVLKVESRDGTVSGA

Usually IC50 stands for the concentration needed to halve the response being measured. Low values mean higher potency, high ones lower potency. For `CON=C(CCC(=O)O)c1nc2ccccc2n([C@H]2C[C@H]3CCC[C@@H](C2)N3C2CC3CCCC(C3)C2)c1=O` (stereo partly drawn) [Compound 2, 4-[4-((1R,3R)—(S)-9-bicyclo[3.3.1]non-3-yl-9-aza-bicyclo[3.3.1]non-3-yl)-3-oxo-3,4-dihydro-quinoxalin-2-yl]-4-methoxyimino-butyric acid], the IC50 on CYP3A4, on CYP2D6, on CYP2C19, on CYP2C9 and against CYP1A2 was above 20 µM throughout.
With `O=C(O)CCC(=NOCCO)c1nc2ccccc2n([C@H]2C[C@H]3CCC[C@@H](C2)N3C2CC3CCCC(C3)C2)c1=O` (stereo partly drawn) [Compound 3, 4-[4-((1R,3R)—(S)-9-Bicyclo[3.3.1]non-3-yl-9-aza-bicyclo[3.3.1]non-3-yl)-3-oxo-3,4-dihydro-quinoxalin-2-yl]-4-(2-hydroxy-ethoxyimino)-butyric acid], the IC50 at CYP3A4, on CYP2D6, on CYP2C19, against CYP2C9 and on CYP1A2 was above 20 µM in each case.
Regarding `O=C(O)/C(=N\OCCO)c1nc2ccccc2n([C@H]2C[C@H]3CCC[C@@H](C2)N3C2CC3CCCC(C3)C2)c1=O` (stereo partly shown) [Compound 4], the half-inhibitory concentration (IC50) against CYP3A4, on CYP2D6, against CYP2C19, on CYP2C9 and at CYP1A2 was above 20 µM throughout.
Regarding `CCN(CC)C(=O)CO/N=C(\C(=O)O)c1nc2ccccc2n([C@H]2C[C@H]3CCC[C@@H](C2)N3C2CC3CCCC(C3)C2)c1=O` (stereo partly drawn) [Compound 5, [4-((1R,3R,7S)-9-bicyclo[3.3.1]non-3-yl-9-aza-bicyclo[3.3.1]non-3-yl)-3-oxo-3,4-dihydro-quinoxalin-2-yl]-diethylcarbamoylmethoxyimino-acetic acid], the IC50 on CYP3A4, against CYP2D6, against CYP2C19, at CYP2C9 and against CYP1A2 was above 20 µM in each case.
In the case of `O=C(O)CCC(=NO)c1nc2ccccc2n([C@H]2C[C@H]3CCC[C@@H](C2)N3C2CC3CCCC(C3)C2)c1=O` (stereo partly drawn) [Compound 7, 4-[4-((1R,3R)—(S)-9-bicyclo[3.3.1]non-3-yl-9-aza-bicyclo[3.3.1]non-3-yl)-3-oxo-3,4-dihydro-quinoxalin-2-yl]-4-hydroxyimino-butyric acid], the half-inhibitory concentration (IC50) at CYP3A4, against CYP2D6, on CYP2C19, against CYP2C9 and against CYP1A2 was above 20 µM each time.
For `CO/N=C(\CCC(=O)O)c1nc2ccccc2n([C@H]2C[C@H]3CCC[C@@H](C2)N3C2CCCCCCCCC2)c1=O` [Compound 9, 4-[4-((1R,3R,7S)-9-cyclodecyl-9-aza-bicyclo[3.3.1]non-3-yl)-3-oxo-3,4-dihydro-quinoxalin-2-yl]-4-methoxyimino-butyric acid], the IC50 at CYP3A4, on CYP2D6, at CYP2C19, at CYP2C9 and against CYP1A2 was above 20 µM throughout.
With `CCO/N=C(\CCC(=O)O)c1nc2ccccc2n([C@H]2C[C@H]3CCC[C@@H](C2)N3C2CC3CCCC(C3)C2)c1=O` (stereo partly drawn) [Compound 11, 4-[4-((1R,3R,7S)-9-bicyclo[3.3.1]non-3-yl-9-aza-bicyclo[3.3.1]non-3-yl)-3-oxo-3,4-dihydro-quinoxalin-2-yl]-4-ethoxyimino-butyric acid], the IC50 on CYP3A4, at CYP2D6, against CYP2C19, against CYP2C9 and on CYP1A2 was above 20 µM in each case.
Turning to `CON=C(CCC(=O)O)c1nc2ccccc2n([C@H]2C[C@H]3CC[C@@H](C2)N3C2CC3CCCCC(C3)C2)c1=O` (stereo partly drawn) [Compound 12, 4-(4-((1R,3R)-8-(bicyclo[4.3.1]decan-8-yl)-8-azabicyclo[3.2.1]octan-3-yl)-3-oxo-3,4-dihydroquinoxalin-2-yl)-4-(methoxyimino)butanoic acid], the IC50 against CYP3A4, against CYP2D6, on CYP2C19, against CYP2C9 and at CYP1A2 was above 20 µM throughout.
Turning to `O=C(O)C(=NOCCO)c1nc2ccccc2n([C@H]2C[C@H]3CCC[C@@H](C2)N3C2CC3CCCCC(C3)C2)c1=O` (stereo partly shown) [Compound 15], the IC50 against CYP3A4, at CYP2D6, on CYP2C19, on CYP2C9 and on CYP1A2 was above 20 µM throughout.
Turning to `C/C(=N\OCC(=O)O)c1nc2ccccc2n([C@H]2C[C@H]3CCC[C@@H](C2)N3C2CC3CCCC(C3)C2)c1=O` (stereo partly shown) [Compound 16], the IC50 against CYP3A4, at CYP2D6, on CYP2C19, against CYP2C9 and against CYP1A2 was above 20 µM throughout.
As to `CON=C(C(=O)O)c1nc2ccccc2n([C@H]2C[C@H]3CCC[C@@H](C2)N3C2CC3CCCCC(C3)C2)c1=O` (stereo partly shown) [Compound 17], the IC50 on CYP3A4, at CYP2D6, against CYP2C19, against CYP2C9 and on CYP1A2 was above 20 µM throughout.
With `O=C(O)CCC(=NO)c1nc2ccccc2n([C@H]2C[C@H]3CCC[C@@H](C2)N3C2CCCCCCCCC2)c1=O` [Compound 18], the IC50 against CYP3A4, at CYP2D6, against CYP2C19, against CYP2C9 and at CYP1A2 was above 20 µM each time.
Consider `O=C(O)C(=NOCCO)c1nc2ccccc2n([C@H]2C[C@H]3CC[C@@H](C2)N3C2CC3CCCCC(C3)C2)c1=O` (stereo partly shown) [Compound 19], for which the IC50 against CYP3A4, against CYP2D6, against CYP2C19, against CYP2C9 and on CYP1A2 was above 20 µM each time.
`CO/N=C(\C(=O)O)c1nc2ccccc2n([C@H]2C[C@H]3CC[C@@H](C2)N3C2CC3CCCCC(C3)C2)c1=O` (stereo partly drawn) [Compound 20, (Z)-2-(4-((1R,3R)-8-(bicyclo[4.3.1]decan-8-yl)-8-azabicyclo[3.2.1]octan-3-yl)-3-oxo-3,4-dihydroquinoxalin-2-yl)-2-(methoxyimino)acetic acid]: the half-maximal inhibitory concentration (IC50) at CYP3A4, at CYP2D6, against CYP2C19, against CYP2C9 and against CYP1A2 was above 20 µM in each case.
With `CC(=NOCC(=O)O)c1nc2ccccc2n(C2CC3CCC(C2)N3C2CC3CCCCC(C3)C2)c1=O` (stereo not shown) [Compound 22], the IC50 against CYP3A4, against CYP2D6, on CYP2C19, at CYP2C9 and at CYP1A2 was above 20 µM each time.
As for `CC[C@@H]1C[C@H]2CC(N3[C@@H]4CCC[C@H]3CC(n3c(=O)c(/C(CCC(=O)O)=N/OC)nc5ccccc53)C4)C[C@@H](C1)C2` (stereo partly shown) [Compound 25], the IC50 against CYP3A4, at CYP2D6, at CYP2C9 and against CYP1A2 was above 20 µM in each case.
`CCO/N=C(\CCC(=O)O)c1nc2ccccc2n([C@H]2C[C@H]3CCC[C@@H](C2)N3C2CC3CC(CC)CC(C3)C2)c1=O` (stereo partly shown) [Compound 26]: the IC50 on CYP3A4, on CYP2D6, against CYP2C9 and on CYP1A2 was above 20 µM throughout.
Consider `CCN(CC)CCO/N=C(\CCC(=O)O)c1nc2ccccc2n(C2C[C@H]3CCC[C@@H](C2)N3C2C[C@@H]3C[C@@H](C)C[C@H](C2)C3)c1=O` (stereo partly shown) [Compound 27], for which the 50% inhibitory concentration (IC50) at CYP3A4 is 8.9 µM; against CYP2D6, 8.7 µM; at CYP2C9 it was above 20 µM; on CYP1A2, above 20 µM.
Turning to `CC1CC2CC(C1)CC(N1[C@@H]3CCC[C@H]1C[C@@H](n1c(=O)c(/C(CCC(=O)O)=N/OCCCN(C)C)nc4ccccc41)C3)C2` (stereo partly shown) [Compound 28], the IC50 at CYP3A4 was 6.1 µM; against CYP2D6, 3 µM; on CYP2C9, above 20 µM; at CYP1A2, above 20 µM.
Take `CC1CC2CC(C1)CC(N1[C@@H]3CCC[C@H]1C[C@@H](n1c(=O)c(/C(CCC(=O)O)=N/OCCN(C)C)nc4ccccc41)C3)C2` (stereo partly shown) [Compound 29]: the IC50 was above 20 µM on CYP3A4, 11.6 µM against CYP2D6, above 20 µM at CYP2C9 and above 20 µM at CYP1A2.
Turning to `CCC1CC2CC(C1)CC(N1[C@@H]3CCC[C@H]1C[C@@H](n1c(=O)c(/C(CCC(=O)O)=N/OCCN(C)C)nc4ccccc41)C3)C2` (stereo partly shown) [Compound 34], the IC50 against CYP3A4 is 17.5 µM; against CYP2D6 it was above 20 µM; against CYP2C9, above 20 µM; against CYP1A2, 16.1 µM.
For `CC[C@@H]1C[C@H]2CC(N3[C@@H]4CCC[C@H]3CC(n3c(=O)c(/C(CCC(=O)O)=N/OCCCN(C)C)nc5ccccc53)C4)C[C@@H](C1)C2` (stereo partly shown) [Compound 35], the IC50 on CYP3A4, on CYP2D6, at CYP2C9 and on CYP1A2 was above 20 µM throughout.
